Experimental data published in patent EP3771713A1 (priority 2019, dated 2021).
Entries after “also recorded” stand apart in the source; their conditions may differ. Where two headings read alike, the source gives them in different places.

Tests used:
[1] = target: hBChE (Homo sapiens, UniProt P06276); experiment: biochemical; type: biochemical
[2] = target: eeAChE (Electrophorus electricus, UniProt O42275); experiment: biochemical
[3] = target: T1, hCB1R (Homo sapiens, UniProt P21554); type: binding
T1 construct: expressed in transfected cells; host or cells: CHO cells stably expressing hCB1R

[4] = target: T2, hCB2R (Homo sapiens, UniProt P34972); experiment: biochemical; type: binding
T2 construct: expressed in transfected cells; host or cells: HEK cells stably expressing hCB2R

[5] = target: hAChE (Homo sapiens, UniProt P22303); experiment: biochemical; type: biochemical
[6] = test system: HT-22 cells; type: cell-based, murine
[7] = test system: Aβ25-35-induced learning impairments in mice; settings: mouse, ip; for dose that significantly prevented Aβ25-35-induced learning impairments / most effective dose (completely prevented Aβ25-35 impairments in both tests): in vivo
[8] = test system: murine microglial cell line N9; experiment: Microglia activation: LPS-activated N9 cells, M1/M2 markers (Griess reaction, western blot); type: cell-based; settings: N9 cells, 100 ng/mL LPS, 1-5 µM compound, 24 h
[9] = target: Aβ42 (Homo sapiens, UniProt P05067); experiment: Aβ42 self-aggregation, thioflavin-T fluorescence assay; type: biochemical; settings: for inhibition at 50 µM: read-out: % inhibition Aβ aggregation self-induced; for inhibition of Aβ42 self-aggregation (in words): 1/1 ratio with Aβ42
[10] = target: hAChE-induced Aβ40 aggregation (Homo sapiens, UniProt P22303); experiment: biochemical; type: biochemical; settings: for inhibition at 100 µM: [I] = 100 µM, Aβ40/hAChE ratio 100/1, mean ± SEM, read-out: % inhibition Aβ aggregation AChE-induced
[11] = target: T2, hCB2R; type: cell-based
[12] = eeAChE from electric eel, read-out: IC50 AChE (eeAChE)
[13] = 50 µM inhibitor and 50 µM Aβ42, mean ± SEM
[14] = hAChE recombinant expressed, read-out: IC50 AChE (hAChE)
[15] = hBChE from human serum, means of at least three determinations, read-out: IC50 hBChE

T2 sequence (P34972 whole entry): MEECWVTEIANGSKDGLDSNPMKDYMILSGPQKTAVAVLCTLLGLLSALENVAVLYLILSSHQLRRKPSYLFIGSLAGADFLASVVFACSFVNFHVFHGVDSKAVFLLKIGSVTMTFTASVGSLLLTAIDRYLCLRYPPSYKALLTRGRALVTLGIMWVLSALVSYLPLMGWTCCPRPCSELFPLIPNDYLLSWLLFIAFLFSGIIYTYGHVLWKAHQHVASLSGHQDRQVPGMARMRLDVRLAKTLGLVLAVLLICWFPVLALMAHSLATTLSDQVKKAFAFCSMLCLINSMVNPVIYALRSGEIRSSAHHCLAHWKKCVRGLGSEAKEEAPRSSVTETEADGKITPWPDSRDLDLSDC
Chain of hAChE-induced Aβ40 aggregation (P22303 32-614): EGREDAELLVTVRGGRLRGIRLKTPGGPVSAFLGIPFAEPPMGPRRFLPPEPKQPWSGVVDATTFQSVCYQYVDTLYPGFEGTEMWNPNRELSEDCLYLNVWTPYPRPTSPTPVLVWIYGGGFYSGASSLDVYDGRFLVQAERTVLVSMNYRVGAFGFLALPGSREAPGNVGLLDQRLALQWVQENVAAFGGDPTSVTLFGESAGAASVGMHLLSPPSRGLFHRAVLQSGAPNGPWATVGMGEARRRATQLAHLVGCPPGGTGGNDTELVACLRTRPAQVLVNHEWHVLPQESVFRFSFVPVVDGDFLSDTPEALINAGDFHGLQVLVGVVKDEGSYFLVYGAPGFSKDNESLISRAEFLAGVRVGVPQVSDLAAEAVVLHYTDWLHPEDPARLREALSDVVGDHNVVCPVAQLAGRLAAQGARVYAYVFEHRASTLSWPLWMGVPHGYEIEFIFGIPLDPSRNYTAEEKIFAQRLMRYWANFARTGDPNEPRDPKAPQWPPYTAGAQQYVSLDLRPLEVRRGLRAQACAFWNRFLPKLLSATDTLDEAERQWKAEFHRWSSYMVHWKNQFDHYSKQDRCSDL
Chain of hAChE (P22303 32-614): as above
T1 sequence (P21554 whole entry): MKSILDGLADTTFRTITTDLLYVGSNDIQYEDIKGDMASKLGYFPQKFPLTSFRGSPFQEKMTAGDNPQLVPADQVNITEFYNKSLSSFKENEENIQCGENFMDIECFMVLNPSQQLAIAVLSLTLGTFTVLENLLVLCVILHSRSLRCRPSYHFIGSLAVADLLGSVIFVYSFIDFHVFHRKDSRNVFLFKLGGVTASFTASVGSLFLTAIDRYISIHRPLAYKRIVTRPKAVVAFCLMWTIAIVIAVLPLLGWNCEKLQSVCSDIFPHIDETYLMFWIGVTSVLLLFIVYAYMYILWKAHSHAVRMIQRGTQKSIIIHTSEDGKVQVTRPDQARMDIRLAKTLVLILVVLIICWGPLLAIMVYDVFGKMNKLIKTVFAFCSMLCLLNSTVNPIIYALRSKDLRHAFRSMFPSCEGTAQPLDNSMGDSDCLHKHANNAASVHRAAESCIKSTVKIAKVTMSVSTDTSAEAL
Chain of Aβ42 (P05067 672-713): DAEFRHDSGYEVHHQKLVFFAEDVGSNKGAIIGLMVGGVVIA
Chain of hBChE (P06276 29-602): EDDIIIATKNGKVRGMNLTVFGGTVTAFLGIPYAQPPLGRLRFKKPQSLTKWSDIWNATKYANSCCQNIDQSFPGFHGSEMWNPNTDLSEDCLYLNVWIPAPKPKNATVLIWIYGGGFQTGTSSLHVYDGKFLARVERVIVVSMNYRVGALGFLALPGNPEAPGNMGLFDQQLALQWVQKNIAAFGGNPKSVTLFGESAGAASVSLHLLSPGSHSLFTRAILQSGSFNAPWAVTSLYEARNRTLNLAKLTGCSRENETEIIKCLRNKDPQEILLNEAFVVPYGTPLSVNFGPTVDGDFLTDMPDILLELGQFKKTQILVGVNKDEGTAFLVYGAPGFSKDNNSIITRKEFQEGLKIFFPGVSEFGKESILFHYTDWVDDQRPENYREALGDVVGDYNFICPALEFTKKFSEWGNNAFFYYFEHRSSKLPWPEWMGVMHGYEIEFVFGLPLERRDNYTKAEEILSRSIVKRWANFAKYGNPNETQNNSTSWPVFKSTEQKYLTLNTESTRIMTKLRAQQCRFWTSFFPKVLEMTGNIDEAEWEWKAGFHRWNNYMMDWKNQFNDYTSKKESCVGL
Chain of eeAChE (O42275 24-633): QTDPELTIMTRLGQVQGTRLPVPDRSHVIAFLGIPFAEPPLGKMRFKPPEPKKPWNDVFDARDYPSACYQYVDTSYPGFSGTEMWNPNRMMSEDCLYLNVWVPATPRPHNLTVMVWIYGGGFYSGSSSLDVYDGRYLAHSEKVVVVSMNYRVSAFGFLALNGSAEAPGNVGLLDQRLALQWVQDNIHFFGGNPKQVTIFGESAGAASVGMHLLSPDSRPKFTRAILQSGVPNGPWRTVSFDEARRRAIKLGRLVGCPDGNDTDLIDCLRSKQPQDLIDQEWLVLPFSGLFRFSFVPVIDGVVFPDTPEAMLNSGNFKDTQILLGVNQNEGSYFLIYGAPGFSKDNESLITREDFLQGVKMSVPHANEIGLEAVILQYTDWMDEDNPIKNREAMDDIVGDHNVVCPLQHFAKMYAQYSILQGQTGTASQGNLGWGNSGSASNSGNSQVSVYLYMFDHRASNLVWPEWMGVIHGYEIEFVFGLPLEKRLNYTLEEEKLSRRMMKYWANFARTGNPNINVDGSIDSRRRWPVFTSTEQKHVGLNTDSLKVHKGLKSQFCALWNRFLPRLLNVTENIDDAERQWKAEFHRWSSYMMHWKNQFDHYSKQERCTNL

CCOc1ccc(Cc2nc3cc(C(=O)N(CC)CC)ccc3n2CCCNc2c3c(nc4ccccc24)CCCC3)cc1 [3b, 2-(4-Ethoxybenzyl)-N,N-diethyl-1-(3-((1,2,3,4-tetrahydroacridin-9-yl)amino)propyl)-1H-benzo[d]imidazole-5-carboxamide]
inhibitory potency towards hBChE compared to tacrine [1]: increased inhibitory potency | IC50 [2, 12]: 0.13 µM | [^3H]CP 55,940 displ. @10 µM hCB1R [3]: 15%

CCOc1ccc(Cc2nc3cc(C(=O)N(CC)CC)ccc3n2CCCCNc2c3c(nc4ccccc24)CCCC3)cc1 [3c, 2-(4-ethoxybenzyl)-N,N-diethyl-1-(4-((1,2,3,4-tetrahydroacridin-9-yl)amino)butyl)-1H-benzo[d]imidazole-5-carboxamide]
Ki [4]: 25.1 µM | Ki ([4]; read-out: Ki hCB2R): 26.9 µM | IC50 [2, 12]: 0.157 µM | [^3H]CP 55,940 displ. @10 µM hCB1R [3]: 32%

CCOc1ccc(Cc2nc3cc(C(=O)N(CC)CC)ccc3n2CCCCCNc2c3c(nc4ccccc24)CCCC3)cc1 [3d, 2-(4-Ethoxybenzyl)-N,N-diethyl-1-(5-((1,2,3,4-tetrahydroacridin-9-yl)amino)pentyl)-1H-benzo[d]imidazole-5-carboxamide]
pIC50 ± SD AChE (hAChE) [5]: 199 nM^b 641 nM^c (6.2 ± 0.1) | IC50 ([5]; IC50 AChE (hAChE)): 0.641 µM | neuroprotective behavior (in words) [6]: none | dose that significantly prevented Aβ25-35-induced learning impairments [7]: 0.3 mg/kg | Ki [4]: 7.94 µM | Ki ([4]; read-out: Ki hCB2R): 7.3 µM | IC50 [2]: 0.199 µM | [^3H]CP 55,940 displ. @10 µM hCB1R [3]: 21%

CCOc1ccc(Cc2nc3cc(C(=O)NCCNc4c5c(nc6ccccc46)CCCC5)ccc3n2CCC(C)C)cc1 [4a, 2-(4-Ethoxybenzyl)-1-isopentyl-N-(2-((1,2,3,4-tetrahydroacridin-9-yl)amino)ethyl)-1H-benzo[d]imidazole-5-carboxamide]
dose that significantly prevented Aβ25-35-induced learning impairments [7]: 0.3 mg/kg | most effective dose (completely prevented Aβ25-35 impairments in both tests) [7]: 1 mg/kg | pIC50 ± SD hCB2R (in brackets after Ki) [4]: 2.5 µM (5.6 ± 0.2) | Ki ([4]; read-out: Ki hCB2R): 2.5 µM | IC50 [2, 12]: 0.0021 µM | NO release / nitrite accumulation [8]: reduced | IL1β release ([8]; M1 marker): significantly decrease | iNOS expression ([8]; M1 marker): significantly decrease | TGFβ2 expression ([8]; M2 marker): not reduced | TREM2 expression ([8]; M2 marker): not reduced

CCOc1ccc(Cc2nc3cc(C(=O)NCCCNc4c5c(nc6ccccc46)CCCC5)ccc3n2CCC(C)C)cc1 [4b, 2-(4-Ethoxybenzyl)-1-isopentyl-N-(3-((1,2,3,4-tetrahydroacridin-9-yl)amino)propyl)-1H-benzo[d]imidazole-5-carboxamide]
inhibitory activity towards hAChE compared to tacrine ([5]; compared to tacrine): higher inhibitory activity | inhibitory potency towards hBChE compared to tacrine [1]: increased inhibitory potency | inhibition at 50 µM [9, 13]: 16.4 ± 4.2% | inhibition of Aβ42 self-aggregation (in words) [9]: quite weak | pIC50 ± SD hCB2R (in brackets after Ki) [4]: 5.0 µM (5.3 ± 0.1) | Ki ([4]; read-out: Ki hCB2R): 5 µM | IC50 [2, 12]: 0.0032 µM | [^3H]CP 55,940 displ. @10 µM hCB1R [3]: 20% | inhibition of AChE-induced Aβ40 aggregation (in words) [10]: significantly reduce | inhibition at 100 µM [10]: 47.8 ± 9.6%

CCOc1ccc(Cc2nc3cc(C(=O)NCCCCNc4c5c(nc6ccccc46)CCCC5)ccc3n2CCC(C)C)cc1 [4c, 2-(4-Ethoxybenzyl)-1-isopentyl-N-(4-((1,2,3,4-tetrahydroacridin-9-yl)amino)butyl)-1H-benzo[d]imidazole-5-carboxamide]
Ki [4]: 2.51 µM | Ki ([4]; read-out: Ki hCB2R): 2.4 µM | IC50 [2, 12]: 0.0128 µM | [^3H]CP 55,940 displ. @10 µM hCB1R [3]: 9% | MIF gene expression [11]: reduced | STAT-3 gene expression [11]: reduced | behavior at the hCB2R [11]: maintained their agonist behavior

CCOc1ccc(Cc2nc3cc(C(=O)NCCCCCNc4c5c(nc6ccccc46)CCCC5)ccc3n2CCC(C)C)cc1 [4d, 2-(4-Ethoxybenzyl)-1-isopentyl-N-(5-((1,2,3,4-tetrahydroacridin-9-yl)amino)pentyl)-1H-benzo[d]imidazole-5-carboxamide]
pIC50 ± SD hCB2R (in brackets after Ki) [4]: 4.0 µM (5.4 ± 0.1) | Ki ([4]; read-out: Ki hCB2R): 4 µM | IC50 [2, 12]: 0.0527 µM | [^3H]CP 55,940 displ. @10 µM hCB1R [3]: 15%

CCOc1ccc(Cc2nc3cc(C(=O)NCCCCCCNc4c5c(nc6ccccc46)CCCC5)ccc3n2CCC(C)C)cc1 [4e, 2-(4-Ethoxybenzyl)-1-isopentyl-N-(6-((1,2,3,4-tetrahydroacridin-9-yl)amino)hexyl)-1H-benzo[d]imidazole-5-carboxamide]
Ki [4]: 10 µM | Ki ([4]; read-out: Ki hCB2R): 9.6 µM | IC50 [2, 12]: 0.0085 µM | [^3H]CP 55,940 displ. @10 µM hCB1R [3]: 54%

Cc1c(C(=O)NN2CCCCC2)nn(-c2ccc(Cl)cc2Cl)c1-c1ccc(Cl)cc1 [Rimonabant, reference compound]
[^3H]CP 55,940 displ. @10 µM hCB2R [4]: 4%

Nc1c2c(nc3ccccc13)CCCC2 [Tacrine 1, tacrine, reference compound]
inhibition of Aβ42 self-aggregation (in words) [9]: no effect | inhibition at 50 µM [9]: < 5%

CCOc1ccc(Cc2nc3cc(C(=O)N(CC)CCCCNc4c5c(nc6ccccc46)CCCC5)ccc3n2CCC(C)C)cc1 [compound 5, 2-(4-ethoxybenzyl)-N-ethyl-1-isopentyl-N-(4-((1,2,3,4-tetrahydroacridin-9-yl)amino)butyl)-1H-benzo[d]imidazole-5-carboxamide]
pIC50 ± SD AChE (hAChE) ([5]; hAChE recombinant expressed): 6.6 ± 0.1 | IC50 [5, 14]: 0.259 µM | SI [1]: 6.2 | pIC50 ± SD hBChE ([1]; hBChE from human serum): 7.2 ± 0.1 | IC50 [1, 15]: 0.06 µM | Ki [4]: 3.16 µM | affinity towards hCB2R (in words) [4]: same affinity | selectivity hCB2R over hCB1R (in words) [4]: low selectivity | Ki ([4]; read-out: Ki hCB2R): 3 µM | IC50 [2, 12]: 0.37 µM | [^3H]CP 55,940 displ. @10 µM hCB1R [3]: 36% | affinity towards hCB1R (in words) [3]: higher affinity

CCOc1ccc(Cc2nc3cc(C(=O)N(CC)CC)ccc3n2CCOCCOCCNc2c3c(nc4ccccc24)CCCC3)cc1 [compound 6, 2-(4-Ethoxybenzyl)-N,N-diethyl-1-(2-(2-(2-((1,2,3,4-tetrahydroacridin-9-yl)amino)ethoxy)ethoxy)ethyl)-1H-benzo[d]imidazole-5-carboxamide]
IC50 [1]: 0.09 µM | pIC50 ± SD hBChE [1]: 90 nM (7.0 ± 0.1) | Ki [4]: 31.6 µM | affinity towards hCB2R (in words) [4]: weaker affinity | Ki ([4]; read-out: Ki hCB2R): 28.7 µM | IC50 [2]: 0.15 µM | [^3H]CP 55,940 displ. @10 µM hCB1R [3]: 11%

CCOc1ccc(Cc2nc3cc(C(=O)NCCOCCOCCNc4c5c(nc6ccccc46)CCCC5)ccc3n2CCC(C)C)cc1 [compound 7, 2-(4-Ethoxybenzyl)-1-isopentyl-N-(2-(2-(2-((1,2,3,4-tetrahydroacridin-9-yl)amino)ethoxy)ethoxy)ethyl)-1H-benzo[d]imidazole-5-carboxamide]
IC50 ([5]; IC50 AChE (hAChE)): 1.36 µM | IC50 ([5]; pIC50 ± SD AChE (hAChE)): 1.4 µM | Ki [4]: 15.8 µM | affinity towards hCB2R (in words) [4]: weaker affinity | Ki ([4]; read-out: Ki hCB2R): 17.4 µM | IC50 [2]: 1.03 µM | [^3H]CP 55,940 displ. @10 µM hCB1R [3]: 32%

CCOc1ccc(Cc2nc3cc(C(=O)NCCSSCCNc4c5c(nc6ccccc46)CCCC5)ccc3n2CCC(C)C)cc1 [compound 8, 2-(4-Ethoxybenzyl)-1-isopentyl-N-(2-((2-((1,2,3,4-tetrahydroacridin-9-yl)amino)ethyl)disulfaneyl)ethyl)-1H-benzo[d]imidazole-5-carboxamide]
pIC50 ± SD AChE (hAChE) ([5]; hAChE recombinant expressed): 7.9 ± 0.1 | IC50 [5, 14]: 0.0134 µM | pIC50 ± SD hBChE ([1]; hBChE from human serum): 7.1 ± 0.1 | IC50 [1, 15]: 0.077 µM | neuroprotective behavior (in words) [6]: neuroprotection comparable to the positive control quercetin; also recorded: showed neuroprotection | dose that significantly prevented Aβ25-35-induced learning impairments [7]: 0.3 mg/kg | most effective dose (completely prevented Aβ25-35 impairments in both tests) [7]: 0.3 mg/kg | dose given for the high in vivo efficacy (conclusion) [7]: 0.1 mg/kg | inhibition at 50 µM [9, 13]: 83.4 ± 6.4% | inhibition of Aβ42 self-aggregation (in words) [9]: strongly inhibited | Ki [4]: 6.31 µM | affinity towards hCB2R (in words) [4]: no significant effect on affinity | Ki ([4]; read-out: Ki hCB2R): 6.8 µM | IC50 [2, 12]: 0.044 µM | [^3H]CP 55,940 displ. @10 µM hCB1R [3]: 45% | inhibition of AChE-induced Aβ40 aggregation (in words) [10]: not able to significantly inhibit | inhibition at 100 µM [10]: 5 ± 2.6%
